The results in this text go back to patent US12239643B2, “Therapeutic agent for inflammatory diseases, autoimmune diseases, fibrotic diseases, and cancer diseases” (MEIJI SEIKA PHARMA CO., LTD., priority 2018, dated 2025).

The first test has as its system PDE4. Description: Evaluation of PDE4 inhibitory activity, scintillation proximity assay. The class given is biochemical. The following applies: scintillation proximity assay; class symbols of Evaluation 1; read-out: PDE4 Inhibitory Activity (concentration for the inhibition rate of 50%, IC50), Evaluation 1. The procedure, abridged: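 IC50 was derived from inhibition curves, referenced to an enzyme-free blank and a DMSO-only control. Compound, PDE4 preparation and tritiated cAMP reacted 120 min at RT in Tris-HCl buffer (pH 7.4) with MgCl2, EGTA and BSA; YSi-SPA beads with ZnSO4 bound product before scintillation counting.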
Background: SPA uses beads or plates that emit light when radiolabelled molecules are held near them.
Regarding `CCOC(c1cc(-c2nccs2)c2oc(N3CC4CC(C3)N4)nc2c1)C(F)(F)F` (stereo not shown) [Example 150, 2-(3,6-Diazabicyclo[3.1.1]heptan-3-yl)-5-(1-ethoxy-2,2,2-trifluoroethyl)-7-(thiazol-2-yl)benzo[d]oxazole], the IC50 was under 0.1 µM.

Regarding `CCOC(=O)c1cc(-c2nccs2)c2oc(N3CC4COCC(C3)N4)nc2c1` [Example 88, Ethyl 2-(3-oxa-7,9-diazabicyclo[3.3.1]nonan-7-yl)-7-(thiazol-2-yl)benzo[d]oxazole-5-carboxylate], the IC50 fell in the range of 0.1 to 1 µM.

For the compound `CN(C)Cc1cc(-c2nccs2)c2oc(N3CC4CCC(C3)N4)nc2c1` [Example 169, 1-(2-(3,8-Diazabicyclo[3.2.1]octan-3-yl)-7-(thiazol-2-yl)benzo[d]oxazol-5-yl)-N,N-dimethylmethanamine], the IC50 is under 0.1 µM.

Turning to `OC(c1cc(-c2nccs2)c2oc(N3CC4CCC(C3)N4)nc2c1)C(F)(F)F` (stereo not shown) [Example 138, 1-(2-(3,8-Diazabicyclo[3.2.1]octan-3-yl)-7-(thiazol-2-yl)benzo[d]oxazol-5-yl)-2,2,2-trifluoroethan-1-ol], the IC50 is under 0.1 µM.

With `Oc1cc(-c2nccs2)c2oc(N3CC4CCCC(C3)N4)nc2c1` [Example 65, 2-(3,9-Diazabicyclo[3.3.1]nonan-3-yl)-7-(thiazol-2-yl)benzo[d]oxazol-5-ol], the IC50 was under 0.1 µM.

As for `COC(c1cc(-c2nccs2)c2oc(N3CC4CCC(C3)N4)nc2c1)C(F)(F)F` (stereo not shown) [Example 143, 2-(3,8-Diazabicyclo[3.2.1]octan-3-yl)-7-(thiazol-2-yl)-5-(2,2,2-trifluoro-1-methoxyethyl)benzo[d]oxazole], the IC50 is under 0.1 µM.

Consider `FC(F)(F)Oc1c(Cl)cc(-c2ncco2)c2oc(N3CC4CCC(C3)N4)nc12` [Example 9, 2-(3,8-Diazabicyclo[3.2.1]octan-3-yl)-5-chloro-7-(oxazol-2-yl)-4-(trifluoromethoxy)benzo[d]oxazole], for which the IC50 is under 0.1 µM.

`CCOC(=O)c1cc(-c2nccs2)c2oc(N3CC4CCCC(C3)N4)nc2c1C(F)(F)F` [Example 164, Ethyl 2-(3,9-diazabicyclo[3.3.1]nonan-3-yl)-7-(thiazol-2-yl)-4-(trifluoromethyl)benzo[d]oxazole-5-carboxylate]: the IC50 is under 0.1 µM.

With `Cc1ccc(-c2nccs2)c2oc(N3CC4CC(C3)N4)nc12` [Example 26, 2-(3,6-Diazabicyclo[3.1.1]heptan-3-yl)-4-methyl-7-(thiazol-2-yl)benzo[d]oxazole], the IC50 is under 0.1 µM.

For the compound `C=CCOc1cc(-c2nccs2)c2oc(N3CC4CCC(C3)N4)nc2c1` [Example 72, 5-(Allyloxy)-2-(3,8-diazabicyclo[3.2.1]octan-3-yl)-7-(thiazol-2-yl)benzo[d]oxazole], the IC50 was under 0.1 µM.

As to `FC(F)(F)COc1cc(-c2nccs2)c2oc(N3CC4CC(C3)N4)nc2c1` [Example 67, 2-(3,6-Diazabicyclo[3.1.1]heptan-3-yl)-7-(thiazol-2-yl)-5-(2,2,2-trifluoroethoxy)benzo[d]oxazole], the IC50 is under 0.1 µM.

Regarding `FC(F)(F)c1c(Cl)cc(-c2ccccn2)c2oc(N3CC4COCC(C3)N4)nc12` [Example 14, 7-(5-Chloro-7-(pyridin-2-yl)-4-(trifluoromethyl)benzo[d]oxazol-2-yl)-3-oxa-7,9-diazabicyclo[3.3.1]nonane], the IC50 was in the range of 0.1 to 1 µM.

With `CCOC(=O)c1cc(-c2nccs2)c2oc(N3CC4CC(C3)N4)nc2c1` [Example 87, Ethyl 2-(3,6-diazabicyclo[3.1.1]heptan-3-yl)-7-(thiazol-2-yl)benzo[d]oxazole-5-carboxylate], the IC50 is under 0.1 µM.

Consider `NS(=O)(=O)c1cc(-c2nccs2)c2oc(N3CC4CCC(C3)N4)nc2c1` [Example 57, 2-(3,8-Diazabicyclo[3.2.1]octan-3-yl)-7-(thiazol-2-yl)benzo[d]oxazole-5-sulfonamide], for which the IC50 is under 0.1 µM.

For the compound `FC(F)(F)Oc1c(Cl)cc(-c2nccs2)c2oc(N3CC4CCCC(C3)N4)nc12` [Example 2, 2-(3,9-Diazabicyclo[3.3.1]nonan-3-yl)-5-chloro-7-(thiazol-2-yl)-4-(trifluoromethoxy)benzo[d]oxazole], the IC50 is under 0.1 µM.

For `COCCOC(c1cc(-c2nccs2)c2oc(N3CC4CC(C3)N4)nc2c1)C(F)(F)F` (stereo not shown) [Example 154, 2-(3,6-Diazabicyclo[3.1.1]heptan-3-yl)-7-(thiazol-2-yl)-5-(2,2,2-trifluoro-1-(2-methoxyethoxy)ethyl)benzo[d]oxazole], the IC50 is under 0.1 µM.

Consider `OCC(CO)COc1cc(-c2nccs2)c2oc(N3CC4CCC(C3)N4)nc2c1` [Example 71, 2-(((2-(3,8-Diazabicyclo[3.2.1]octan-3-yl)-7-(thiazol-2-yl)benzo[d]oxazol-5-yl)oxy)methyl)propane-1,3-diol], for which the IC50 was under 0.1 µM.

In the case of `Oc1cc(-c2nccs2)c2oc(N3CC4CC(C3)N4)nc2c1` [Example 64, 2-(3,6-Diazabicyclo[3.1.1]heptan-3-yl)-7-(thiazol-2-yl)benzo[d]oxazol-5-ol], the IC50 was under 0.1 µM.

As for `OC(c1cc(-c2nccs2)c2oc(N3CC4CCC(C3)N4)nc2c1)C(F)(F)F` (stereo not shown) [Example 139, 1-(2-(3,8-Diazabicyclo[3.2.1]octan-3-yl)-7-(thiazol-2-yl)benzo[d]oxazol-5-yl)-2,2,2-trifluoroethan-1-ol], the IC50 was under 0.1 µM.

For `CC(=O)Nc1cc(-c2nccs2)c2oc(N3CC4CC(C3)N4)nc2c1` [Example 49, N-(2-(3,6-diazabicyclo[3.1.1]heptan-3-yl)-7-(thiazol-2-yl)benzo[d]oxazol-5-yl)acetamide], the IC50 lay in the range of 0.1 to 1 µM.

As for `CCOC(=O)c1cc(-n2cccn2)c2oc(N3CC4CC(C3)N4)nc2c1` [Example 91, Ethyl 2-(3,6-diazabicyclo[3.1.1]heptan-3-yl)-7-(1H-pyrazol-1-yl)benzo[d]oxazole-5-carboxylate], the IC50 is over 1 µM.

Still in this test, the particulars now being: scintillation proximity assay; read-out: PDE4 Inhibitory Activity (Evaluation 1; concentration for the inhibition rate of 50%).
For `OCC(F)(F)OC(c1ccc(-c2nccs2)c2oc(N3CC4CC(C3)N4)nc12)C(F)(F)F` (stereo not shown) [Example 258, 2-(1-(2-(3,6-Diazabicyclo[3.1.1]heptan-3-yl)-7-(thiazol-2-yl)benzo[d]oxazol-4-yl)-2,2,2-trifluoroethoxy)-2,2-difluoroethan-1-ol], the IC50 is under 0.1 µM.

For the compound `OC(c1cc(-c2nccs2)c2oc(N3CC4CC(C3)N4)nc2c1OC(F)(F)F)C(F)F` (stereo not shown) [Example 292, 1-(2-(3,6-Diazabicyclo[3.1.1]heptan-3-yl)-7-(thiazol-2-yl)-4-(trifluoromethoxy)benzo[d]oxazol-5-yl)-2,2-difluoroethan-1-ol], the IC50 is under 0.1 µM.

Turning to `OCC(F)(F)Oc1ccc(-n2cccn2)c2oc(N3CC4CC(C3)N4)nc12` [Example 320, 2-((2-(3,6-Diazabicyclo[3.1.1]heptan-3-yl)-7-(1H-pyrazol-1-yl)benzo[d]oxazol-4-yl)oxy)-2,2-difluoroethan-1-ol], the IC50 was under 0.1 µM.

Take `O=C(O)COC(c1ccc(-c2nccs2)c2oc(N3CC4CC(C3)N4)nc12)C(F)(F)F` (stereo not shown) [Example 253, 2-(1-(2-(3,6-Diazabicyclo[3.1.1]heptan-3-yl)-7-(thiazol-2-yl)benzo[d]oxazol-4-yl)-2,2,2-trifluoroethoxy)acetic acid]: the IC50 was under 0.1 µM.

`ON1C2CCC1CN(c1nc3c(OC(F)(F)F)c(Cl)cc(-c4nccs4)c3o1)C2` [Example 375, 3-(5-Chloro-7-(thiazol-2-yl)-4-(trifluoromethoxy)benzo[d]oxazol-2-yl)-3,8-diazabicyclo[3.2.1]octan-8-ol]: the IC50 was under 0.1 µM.

`CC(O)C(F)(F)Oc1ccc(-c2nccs2)c2oc(N3CC4CC(C3)N4)nc12` (racemic) [Example 250, 1-((2-(3,6-Diazabicyclo[3.1.1]heptan-3-yl)-7-(thiazol-2-yl)benzo[d]oxazol-4-yl)oxy)-1,1-difluoropropan-2-ol]: the IC50 was under 0.1 µM.

For the compound `C=CC(F)(F)Oc1ccc(-c2nccs2)c2oc(N3CC4CC(C3)N4)nc12` [Example 351, 2-(3,6-Diazabicyclo[3.1.1]heptan-3-yl)-4-((1,1-difluoroallyl)oxy)-7-(thiazol-2-yl)benzo[d]oxazole], the IC50 was under 0.1 µM.

For `OCc1cc(-c2nccs2)c2oc(N3CC4CCC(C3)N4)nc2c1OC(F)(F)F` [Example 201, (2-(3,8-Diazabicyclo[3.2.1]octan-3-yl)-7-(thiazol-2-yl)-4-(trifluoromethoxy)benzo[d]oxazol-5-yl)methanol], the IC50 is under 0.1 µM.

Regarding `CC(O)C(F)(F)OC(c1ccc(-c2nccs2)c2oc(N3CC4CC(C3)N4)nc12)C(F)(F)F` (stereo not shown) [Example 265, 1-(1-(2-(3,6-Diazabicyclo[3.1.1]heptan-3-yl)-7-(thiazol-2-yl)benzo[d]oxazol-4-yl)-2,2,2-trifluoroethoxy)-1,1-difluoropropan-2-ol], the IC50 is under 0.1 µM.

In the case of `CC(O)c1ccc(-c2nccs2)c2oc(N3CC4CC(C3)N4)nc12` (stereo not shown) [Example 240, 1-(2-(3,6-Diazabicyclo[3.1.1]heptan-3-yl)-7-(thiazol-2-yl)benzo[d]oxazol-4-yl)ethan-1-ol], the IC50 was under 0.1 µM.

`CC(O)C(F)(F)Oc1ccc(-c2cscn2)c2oc(N3CC4CC(C3)N4)nc12` (stereo not shown) [Example 309, 1-((2-(3,6-Diazabicyclo[3.1.1]heptan-3-yl)-7-(thiazol-4-yl)benzo[d]oxazol-4-yl)oxy)-1,1-difluoropropan-2-ol]: the IC50 was under 0.1 µM.

Turning to `CC(=O)c1cc(-c2nccs2)c2oc(N3CC4CCC(C3)N4)nc2c1OC(F)(F)F` [Example 213, 1-(2-(3,8-Diazabicyclo[3.2.1]octan-3-yl)-7-(thiazol-2-yl)-4-(trifluoromethoxy)benzo[d]oxazol-5-yl)ethan-1-one], the IC50 was under 0.1 µM.

Consider `CC(C)(O)c1cc(-c2cscn2)c2oc(N3CC4CC(C3)N4)nc2c1OC(F)(F)F` [Example 288, 2-(2-(3,6-Diazabicyclo[3.1.1]heptan-3-yl)-7-(thiazol-4-yl)-4-(trifluoromethoxy)benzo[d]oxazol-5-yl)propan-2-ol], for which the IC50 was under 0.1 µM.
